According to article PMC5933457, “Probing biological activity through structural modelling of ligand-receptor interactions of 2,4-disubstituted thiazole retinoids” (Bioorganic & Medicinal Chemistry, 2018):

Assays:
TERA2.cl.SP12 cells = test: Immunocytochemistry for A2B5, TUJ-1 and cytokeratin 8; assay type: cell-based, human; details: for expression of epithelial phenotype marker cytokeratin 8: 10 μM, 1, 2 and 3 weeks, Fig. 7D; for neuronal differentiation by TUJ-1 staining: up to 3 weeks
Procedure: Third, we carried out assessment of protein expression using immunofluorescent techniques on cultures of TERA2.cl.SP12 cells treated with retinoids.
TERA2.cl.SP12 cells were seeded at 5000 cells per well on poly-D-lysine (25 μg/ml) coated cover slips in 6-well plates. Cells were treated with each retinoid at a concentration of 10 μM for 7, 14 and 21 days (the media was changed every 3–4 days). Cells were also treated with 1% DMSO for the same time periods as a […] control. At the end of the treatment period, cells were fixed (4% para-formaldehyde in PBS for 30 min at room temperature (RT) and rinsed with PBS. One set of experiments was used for the cell surface marker A2B5 (diluted 1:100, R&D systems), and the other set was prepared for intracellular staining using 1% Triton-X-100 (Sigma Aldrich) in PBS as a permeabilizing agent for 10 min at RT. Non-specific labeling was blocked by incubation with a solution of 1% goat serum (Sigma Aldrich) containing 0.2% Tween-20 (Sigma Aldrich) in PBS for one hour at RT. The primary antibodies β-III tubulin antibody (TUJ-1) (1:200, Affymetrix eBioscience) and CK-8 antibody (1:500, Affymetrix eBioscience) were diluted in blocking solution and incubated with the cells for 1 h at RT. After washing three times for 15 min with PBS, cells were incubated for 1 h in the dark with anti-mouse FITC-conjugated secondary antibody IgM (1:128, Sigma Aldrich) for A2B5 staining, and anti-mouse Alexafluor 488 IgG (1:600, Invitrogen) for TUJ-1 and CK-8 staining. Hoechst 33,342 nuclear staining dye (1:1000, Molecular Probes) was dissolved in blocking solution after the secondary antibody staining step for nuclear staining.
Immunocytofluorescent images of fixed cells were visualized using a Leica SP5 confocal microscope. Scale bars are shown at 25 μm.

[1] = target: T1, RARγ ligand-binding domain (GST-RAR-γ-LBD) (Homo sapiens, UniProt P13631); test: LanthaScreen TR-FRET RARγ co-activator (receptor binding) assay; assay type: biochemical; details: for EC50: estimated EC50, TR-FRET co-activator assay, 4 h incubation, read-out: EC50 (95% confidence range) RARγ; for binding-curve upper asymptote (coactivator recruitment), RARγ: in words, Fig. 6C
T1 construct: purchased Invitrogen
T1 sequence (P13631 185-419 limits assumed): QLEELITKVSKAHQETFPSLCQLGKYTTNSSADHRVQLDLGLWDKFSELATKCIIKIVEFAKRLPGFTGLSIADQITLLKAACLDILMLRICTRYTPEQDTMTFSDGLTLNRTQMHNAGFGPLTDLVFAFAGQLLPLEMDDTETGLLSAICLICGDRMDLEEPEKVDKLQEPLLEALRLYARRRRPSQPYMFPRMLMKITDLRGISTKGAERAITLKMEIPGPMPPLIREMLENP
Procedure: These predictions were tested through a receptor-binding assay for each RAR isotype (Fig. 6), where the assay signal is dependent on two parameters: the binding affinity of ligand to the RAR LBD, and the affinity of the coactivator for the ligand-LBD complex. For this assay, binding curves and variation in level of the upper asymptote can reflect differences in co-activator affinity for the ligand-LBD complex; variation in affinity of ligand for LBD shifts the midpoint (EC50) of the binding curve, whereas changes in the level of the upper asymptote may result from changes in coactivator affinity for the ligand-LBD complex alone, or in combination with changes in affinity for ligand with LBD.[23]
The binding interaction of each retinoid with RARα, β and γ were determined in vitro by time-resolved fluorescence resonance energy transfer (TR-FRET) using the LanthaScreen TR-FRET RARα, RARβ, and RARγ co-activator assays according to the manufacturer’s (Invitrogen™) instructions.[23] This uses a terbium-labeled anti-GST antibody, a fluorescein-labeled co activator peptide, and RARα/β/γ ligand-binding domains (LBD) that are tagged with glutathione-S-transferase (GST) in a homogenous assay format. All experiments were performed in black, 384-well low-volume plates in the dark at RT with a 4 h incubation time. The final assay volume was 20 μL and all dilutions were carried out using TR-FRET assay buffer, with a final DMSO concentration of 1%. A mixture of either 3.5 nM GST-RAR-α-LBD or 2.5 nM GST-RAR-β-LBD or 3 nM GST-RAR-γ-LBD with 62.5 nM Tb-anti GST antibody and 30 μM fluorescein-labeled peptide and retinoid or DMSO control was added to each of the wells. Each ligand assay was performed in duplicate and measured using a PHERAstar FS Microplate Reader (BMG Labtech, Ortenberg, Germany) with instrument settings as described in the manufacturer’s instructions for LanthaScreen assays. The TR-FRET signal was expressed as the ratio of the signals at 520 nm and 490 nm. The data were fitted to a three-parameter ligand-binding curve using SigmaPlot (version 12.5, Systat Software Inc., San Jose CA) and normalized to the lower asymptote of each binding curve. […] Since the assay involves interactions between ligand and LBD, and ligand-dependent interactions between the LBD and fluorescein-labeled co activator, the binding assay data were interpreted by simulating these coupled chemical reactions using the biochemical simulator COPASI version 4.3.[23], [54]
The readout of the Lanthascreen TR-FRET binding assay is based on a Forster resonance energy transfer (FRET) signal generated from the interaction between a terbium-labelled anti-glutathione-S-transferase (GST) antibody and a fluorescein-labelled coactivator peptide. The RAR ligand-binding domain (LBD) is a GST fusion protein and interaction between the LBD and the fluorescein-labelled coactivator peptide is driven by the binding of ligand to the LBD, and detected by the FRET signal from the terbium/fluorescein interaction when the terbium-labelled anti-GST binds the LBD fusion protein. The output of the assay thus relies on two binding interactions: ligand with LBD, and ligand-bound LBD with the coactivator peptide. As both interactions may be affected by the fit of ligand to the binding pocket of the LBD, we used the biochemical pathway simulator COPASI^1 to build a simple model of how the FRET signal output in the assay will vary according to differential changes in the kinetics of the two binding interactions. Reactions were modelled deterministically using mass-action kinetics described by ordinary differential equations (ODE) within COPASI.^1 This model enables us to assess the effect of different rate constants and varying ligand concentration on the formation of the final ternary complex that is the read-out from the Lanthascreen TR-FRET assay.

CCOCCOc1nc(-c2ccc(C(=O)O)cc2)sc1C [GZ18]
expression of epithelial phenotype marker cytokeratin 8 (TERA2.cl.SP12 cells): more effective | neuronal differentiation by TUJ-1 staining (TERA2.cl.SP12 cells; 10 μM, Fig. 7C): very low activity | EC50 [1]: 141 nM | binding-curve upper asymptote (coactivator recruitment), RARγ [1]: very low binding-curve upper asymptotes

CCOC(=O)c1ccc(-c2nc(-c3ccccc3)c(C)s2)cc1 [GZ22]
expression of epithelial phenotype marker cytokeratin 8 (TERA2.cl.SP12 cells): more effective | neuronal differentiation by TUJ-1 staining (TERA2.cl.SP12 cells; 10 μM, Fig. 7C): very low activity | EC50 [1]: 383 nM

Cc1sc(-c2ccc(C(=O)O)cc2)nc1-c1ccc2c(c1)C(C)(C)CCC2(C)C [GZ25]
expression of epithelial phenotype marker cytokeratin 8 (TERA2.cl.SP12 cells): not detectable | expression of neuronal differentiation marker A2B5 (immunofluorescence) (TERA2.cl.SP12 cells; 10 μM, after 7 days, Fig. 7C): induced | neuronal differentiation by TUJ-1 staining (TERA2.cl.SP12 cells; 10 μM, Fig. 7C): most effective | EC50 [1]: 98.9 nM | binding-curve upper asymptote (coactivator recruitment), RARγ [1]: high
